Values of other authors, collected in patent publication US8911777B2, “Pharmaceutical composition of tacrolimus” (Sigmoid Pharma Limited, priority 2007, dated 2014).

Key:
[1] = after oral administration of conventional IR tablets
[2] = whole blood; Masuda et al. 2006

## C=CC[C@@H]1/C=C(\C)C[C@H](C)C[C@H](OC)[C@H]2O[C@@](O)(C(=O)C(=O)N3CCCC[C@H]3C(=O)O[C@H](/C(C)=C/[C@@H]3CC[C@@H](O)[C@H](OC)C3)[C@H](C)[C@@H](O)CC1=O)[C@H](C)C[C@@H]2OC [Tacrolimus]
[1]
  persistence of drug effects: 8 to 12 h
[2]
  blood concentration at which adverse effects occurred: higher than 15 ng/ml
